From patent publication US20260102347A1, “Sulfur-Containing Ionizable Lipids for the Delivery of Therapeutic Agents” (NanoVation Therapeutics Inc., priority 2022, published 2026)

Key:
[1] = delivery of siRNA; relative to KC2; cited from earlier work
[2] = system: spleen; assay: In vivo analysis in CD-1 mice: luciferase mRNA-LNP, luminescence in the spleen; conditions: LNP 50/10/38.5/1.5 mol % ionizable lipid/DSPC/chol/PEG-DMG, N/P 6, mRNA encoding luciferase 1 mg/kg intravenous, 4 hours post-injection (FIG. 2B)
Procedure: (§1) Lipids 1 or 2 described herein, DSPC, cholesterol, and PEG-DMG, were dissolved in ethanol at the appropriate ratios to a final concentration of 10 mM total lipid. Nucleic acid (siRNA or mRNA) was dissolved in an appropriate buffer such as 25 mM sodium acetate pH 4 or sodium citrate pH 4 to a concentration necessary to achieve the appropriate amine-to-phosphate ratios. The aqueous and organic solutions were mixed using a rapid-mixing device as described in Kulkarni et al., 2018, ACS Nano, 12:4787 and Kulkarni et al., 2017, Nanoscale, 36:133347 (each incorporated herein by reference) at a flow rate ratio of 3:1 (v/v; respectively) and a total flow rate of 20 mL/min. The resultant mixture was dialyzed directly against 1000-fold volume of PBS pH 7.4. All formulations were concentrated using an Amicon™ centrifugal filter unit and analysed using the methods described below. LNP-mRNA encoding firefly luciferase were injected intravenously (tail-vein) into 6-8 week old CD-1 mice. Four hours following injection, the animals were euthanized and the liver and spleen and isolated. Tissue was homogenized in Glo Lysis buffer and a luciferase assay performed using the Steady Glo Luciferase assay kit (as per manufacturers recommendations). LNP formulations containing 50/10/38.5/1.5 mol % of ionizable lipids/DSPC/chol/PEG-DMG with a nitrogen-to-phosphorous ratio (N/P) of 6 and mRNA encoding luciferase were tested for in vivo transfection efficiency in the liver and spleen after injection to CD-1 mice. The mRNA dose was 1 mg/kg. Luminescence intensity in the liver and spleen was measured at 4 hours post-injection. The ionizable lipids were 1 and 5-32 (Table 1).

[3] = system: liver; assay: In vivo analysis in CD-1 mice: luciferase mRNA-LNP, luminescence in the liver; conditions: LNP 50/10/38.5/1.5 mol % ionizable lipid/DSPC/chol/PEG-DMG, N/P 6, mRNA encoding luciferase 1 mg/kg intravenous, 4 hours post-injection (FIG. 2A)
Procedure: as §1

SMILES | siRNA required, times less than KC2 [1] | luminescence intensity per mg spleen compared with the MC3 benchmark [2] | luminescence intensity per mg liver compared with the MC3 benchmark [3]
CCCCC/C=C\C/C=C\CCCCCCCCC(CCCCCCCC/C=C\C/C=C\CCCCC)OC(=O)CCCN(C)C [MC3, DLin-MC3-DMA] | about 3 times |  | 
CCCCCCCCCC(=O)OC(CCCCC(CCCCC(CSC1CCCCC1)OC(=O)CCCCCCCCC)OC(=O)CCCN(C)C)CSC1CCCCC1 (centres unmarked) [lipid 6, 1,13-bis(Cyclohexylthio)-7-((4-(dimethylamino)butanoyl)oxy)tridecane-2,12-diyl bis-(decanoate)] |  | higher | higher
CCCCCCCCCC(=O)OC(CCCCCC(CCCCCC(CSCCCCCC)OC(=O)CCCCCCCCC)OC(=O)CCCN(C)C)CSCCCCCC (centres unmarked) [lipid 7, 8-((4-(Dimethylamino)butanoyl)oxy)-1,15-bis(hexylthio)pentadecane-2,14-diyl bis(decanoate)] |  | higher | higher
CCCCCCSCC(CCCCCC(CCCCCC(CSCCCCCC)OC(=O)CCC1CCCCC1)OC(=O)CCCN(C)C)OC(=O)CCC1CCCCC1 (centres unmarked) [lipid 8, 8-((4-(Dimethylamino)butanoyl)oxy)-1,15-bis(hexylthio)pentadecane-2,14-diyl bis(3-cyclohexylpropanoate)] |  | higher | higher
CCCCCCCCCC(=O)OC(CCCCCC(CCCCCC(CSCCCCCC)OC(=O)CN(C)C(=O)CCCCC)OC(=O)CCCN(C)C)CSCCCCCC (centres unmarked) [lipid 9, 8-((4-(dimethylamino)butanoyl)oxy)-14-((N-hexanoyl-N-methylglycyl)oxy)-1,15-bis-(hexylthio)pentadecan-2-yl decanoate] |  | higher | higher
CCCCCCCCCC(=O)OC(CCCCCC(CCCCCC(CSC1CCCCC1)OC(=O)CCCCCCCCC)OC(=O)CCCN(C)C)CSC1CCCCC1 (centres unmarked) [lipid 10, 1,15-bis(cyclohexylthio)-8-((4-(dimethylamino)butanoyl)oxy)pentadecane-2,14-diyl bis(decanoate)] |  |  | higher
CCCCCCCCC(=O)OC(CCCCCC(CCCCCC(CSC1CCCCC1)OC(=O)CCCCCCCC)OC(=O)CCCN(C)C)CSC1CCCCC1 (centres unmarked) [lipid 11, 1,15-bis(cyclohexylthio)-8-((4-(dimethylamino)butanoyl)oxy)pentadecane-2,14-diyl dinonanoate] |  |  | higher
CCCCCCCCCC(=O)OC(CCCCC(CCCCC(CSCCCCC)OC(=O)CCCCCCCCC)N(C)CCCCO)CSCCCCC (centres unmarked) [lipid 22, 7-((4-Hydroxybutyl)(methyl)amino)-1,13-bis(pentylthio)tridecane-2,12-diyl bis(decano-ate)] |  | higher | higher
CCCCCCCCCC(=O)OC(CCCCC(CCCCC(CSCCCCCCC)OC(=O)CCCCCCCCC)N(C)CCCCO)CSCCCCCCC (centres unmarked) [lipid 23, 1,13-bis(Heptylthio)-7-((4-hydroxybutyl)(methyl)amino)tridecane-2,12-diyl bis(decano-ate)] |  | higher | higher
CCCCCCCCC(=O)OC(CCCCC(CCCCC(CSCCCCCCC)OC(=O)CCCCCCCC)N(C)CCCCO)CSCCCCCCC (centres unmarked) [lipid 24, 1,13-bis(Heptylthio)-7-((4-hydroxybutyl)(methyl)amino)tridecane-2,12-diyl dinonano-ate] |  | higher | higher
CCCCCCCCC(=O)OC(CCCCCC(CCCCCC(CSCCCCC)OC(=O)CCCCCCCC)N(C)CCCCO)CSCCCCC (centres unmarked) [lipid 25, 8-((4-hydroxybutyl)(methyl)amino)-1,15-bis(pentylthio)pentadecane-2,14-diyl dinonano-ate] |  | higher | higher
CCCCCCCCCC(=O)OC(CCCCCC(CCCCCC(CSCCCCC)OC(=O)CCCCCCCCC)N(C)CCCCO)CSCCCCC (centres unmarked) [lipid 26, 8-((4-hydroxybutyl)(methyl)amino)-1,15-bis(pentylthio)pentadecane-2,14-diyl bis-(decanoate)] |  | higher | higher
CCCCCCCCCC(=O)OC(CCCCCC(CCCCCC(CSCCCCCC)OC(=O)CCCCCCCCC)N(C)CCCCO)CSCCCCCC (centres unmarked) [lipid 27, 1,15-bis(Hexylthio)-8-((4-hydroxybutyl)(methyl)amino)pentadecane-2,14-diyl bis-(decanoate)] |  | higher | higher
CCCCCCCCCC(=O)OC(CCCCCC(CCCCCC(CSCCCCCC)OC(=O)CN(C)C(=O)CCCCC)N(C)CCCCO)CSCCCCCC (centres unmarked) [lipid 30, 14-((N-hexanoyl-N-methylglycyl)oxy)-1,15-bis(hexylthio)-8-((4-hydroxybutyl)(methyl)-amino)pentadecan-2-yl decanoate] |  | higher | higher
CCCCCCCCC(=O)OC(CCCCCC(CCCCCC(CSCCCCCCC)OC(=O)CCCCCCCC)N(C)CCCCO)CSCCCCCCC (centres unmarked) [lipid 31, 1,15-bis(Heptylthio)-8-((4-hydroxybutyl)(methyl)amino)pentadecane-2,14-diyl dinonanoate] |  | higher | higher
CCCCCCCCC(=O)OC(CCCCCC(CCCCCC(CSC1CCCCC1)OC(=O)CCCCCCCC)N(C)CCCCO)CSC1CCCCC1 (centres unmarked) [lipid 32, 1,15-bis(Cyclohexylthio)-8-((4-hydroxybutyl)(methyl)amino)pentadecane-2,14-diyl dinonanoate] |  | higher | higher
